target: H1047R PIK3CA enzyme (Homo sapiens, UniProt P42336, H1047R); assay: ADP-Glo Biochemical PIK3CA Kinase Assay
Protocol: Compounds to be assayed were plated in 16 doses of 1:2 serial dilutions (20 nL volume each well) on a 1536-well plate, and the plate warmed to room temperature. […] To the well was added 1 μL of 200 μM ATP and 20 μM of diC8-PIP2 in Substrate Assay Buffer (50 mM HEPES pH7.4, 50 mM NaCl, 5 mM DTT and 0.03% CHAPS) to start the reaction, and the plate was shaken for 10 seconds, then spun briefly at 1500 rpm, and then incubated for 60 minutes at room temperature. The reaction was stopped by adding 2 μL of ADP-Glo reagent (Promega), and spinning briefly at 1500 rpm, and then incubating for 40 minutes. ADP-Glo Detection reagent (Promega) was added and the plate spun briefly at 1500 rpm, then incubated for 30 minutes.

Chain of H1047R PIK3CA enzyme (P42336 whole entry H1047R): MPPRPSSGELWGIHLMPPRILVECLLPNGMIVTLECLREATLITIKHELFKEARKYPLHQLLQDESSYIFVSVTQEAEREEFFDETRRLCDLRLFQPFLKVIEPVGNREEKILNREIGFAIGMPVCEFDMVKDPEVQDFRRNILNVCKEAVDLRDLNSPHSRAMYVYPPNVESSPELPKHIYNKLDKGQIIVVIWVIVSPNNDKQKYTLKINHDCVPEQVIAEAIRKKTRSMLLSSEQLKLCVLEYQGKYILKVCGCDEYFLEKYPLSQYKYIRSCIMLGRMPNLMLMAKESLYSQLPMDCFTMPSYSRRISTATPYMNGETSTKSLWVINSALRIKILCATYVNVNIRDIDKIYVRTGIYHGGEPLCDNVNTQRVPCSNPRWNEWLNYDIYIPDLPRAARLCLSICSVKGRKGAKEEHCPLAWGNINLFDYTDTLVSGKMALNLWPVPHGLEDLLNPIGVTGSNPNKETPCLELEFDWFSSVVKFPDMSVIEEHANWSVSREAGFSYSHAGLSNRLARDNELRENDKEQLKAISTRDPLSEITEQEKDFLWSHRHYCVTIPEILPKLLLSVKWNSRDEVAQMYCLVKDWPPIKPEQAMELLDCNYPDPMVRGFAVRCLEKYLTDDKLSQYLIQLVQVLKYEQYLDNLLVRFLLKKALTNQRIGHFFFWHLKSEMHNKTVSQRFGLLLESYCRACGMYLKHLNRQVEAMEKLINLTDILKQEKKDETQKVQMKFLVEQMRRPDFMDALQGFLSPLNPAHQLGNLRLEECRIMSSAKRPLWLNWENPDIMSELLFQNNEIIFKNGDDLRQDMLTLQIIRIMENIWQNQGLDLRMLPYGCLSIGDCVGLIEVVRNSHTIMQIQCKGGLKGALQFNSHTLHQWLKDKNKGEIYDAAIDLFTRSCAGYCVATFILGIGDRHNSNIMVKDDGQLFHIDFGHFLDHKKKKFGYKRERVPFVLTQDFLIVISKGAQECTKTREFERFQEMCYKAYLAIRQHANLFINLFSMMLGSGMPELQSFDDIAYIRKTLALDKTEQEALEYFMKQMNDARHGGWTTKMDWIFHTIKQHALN
Chain of H1047R PIK3CA enzyme (P27986 whole entry partner): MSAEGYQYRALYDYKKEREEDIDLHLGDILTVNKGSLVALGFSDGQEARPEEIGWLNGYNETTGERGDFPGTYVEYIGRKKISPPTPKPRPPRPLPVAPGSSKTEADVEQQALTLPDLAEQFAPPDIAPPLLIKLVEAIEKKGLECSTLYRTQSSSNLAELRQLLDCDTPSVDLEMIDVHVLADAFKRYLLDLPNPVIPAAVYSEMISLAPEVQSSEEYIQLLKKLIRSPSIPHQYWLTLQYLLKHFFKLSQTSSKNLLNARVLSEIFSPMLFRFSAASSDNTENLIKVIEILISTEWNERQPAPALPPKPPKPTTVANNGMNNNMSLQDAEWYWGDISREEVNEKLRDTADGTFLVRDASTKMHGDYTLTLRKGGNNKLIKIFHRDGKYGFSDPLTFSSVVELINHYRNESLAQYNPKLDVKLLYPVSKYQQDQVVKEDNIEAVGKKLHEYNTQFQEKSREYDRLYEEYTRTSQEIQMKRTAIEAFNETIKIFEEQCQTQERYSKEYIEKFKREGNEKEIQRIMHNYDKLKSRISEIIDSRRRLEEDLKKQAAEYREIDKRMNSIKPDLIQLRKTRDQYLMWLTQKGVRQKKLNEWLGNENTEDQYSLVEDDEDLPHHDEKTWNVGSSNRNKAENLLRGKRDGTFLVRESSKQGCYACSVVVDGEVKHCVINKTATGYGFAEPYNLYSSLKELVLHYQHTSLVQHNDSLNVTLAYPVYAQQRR

Compound	IC50
Cn1cc2c(C(=O)Nc3cccc4c3C(c3cc(F)ccc3Cl)NC4=O)cc(F)cc2n1 (centres unmarked) [Compound I-870]	10 to 100 µM
N#CC[C@@H](O)c1cc(NC(=O)c2cc(F)cc(C(F)(F)F)c2)c2c(c1)C(=O)N[C@H]2c1cc(F)ccc1Cl (single isomer, unassigned) [Compound I-1393]	≤ 0.1 µM
O=C(Nc1cccc2c1C(c1cc(F)ccc1Cl)NC2=O)Nc1n[nH]c2ccccc12 (centres unmarked) [Compound I-2382]	1 to 10 µM
Cn1ccc(Nc2cc(NC(=O)c3cc(F)cc(C(F)(F)F)c3)c3c(c2)C(=O)NC3c2cc(F)ccc2Cl)n1 (centres unmarked) [Compound I-867]	≤ 0.1 µM
CN(C)c1ncc(-c2cc(NC(=O)c3cc(F)cc(C(F)(F)F)c3)c3c(c2)C(=O)NC3c2cc(F)ccc2Cl)cn1 (centres unmarked) [Compound I-1222]	≤ 0.1 µM
O=C(Nc1cccc2c1[C@H](NC1CCCC1)NC2=O)c1cc(F)cc(C(F)(F)F)c1 (single isomer, unassigned) [Compound I-2250]	10 to 100 µM
CC(C)(CC(F)(F)F)C(=O)Nc1cc(Br)cc2c1C(c1cc(F)ccc1Cl)NC2=O (centres unmarked) [Compound I-1619]	10 to 100 µM
O=C(Nc1cc(-c2ccc3nnc(C(F)F)n3c2)cc2c1[C@H](c1cc(F)ccc1Cl)NC2=O)c1cc(F)cc(C(F)(F)F)c1 [Compound I-1925]	≤ 0.1 µM
CC(C)(O)Cn1cc(-c2cc(NC(=O)c3cc(F)cc(C(F)(F)F)c3)c3c(c2)C(=O)N[C@@H]3c2cc(F)ccc2Cl)cn1 [Compound I-1096]	10 to 100 µM
O=C(Nc1cc(NC(=O)c2cc(F)cc(C(F)(F)F)c2)c2c(c1)C(=O)N[C@@H]2c1cc(F)ccc1Cl)c1cccnc1 (racemic) [Compound I-1478]	0.1 to 0.5 µM
CC(C)(O)c1cc(NC(=O)c2cc(F)cc(Cl)c2)c2c(c1)C(=O)NC2c1cc(F)ccc1Cl (centres unmarked) [Compound I-214]	≤ 0.1 µM
Cn1nc2ccccc2c1Nc1cc(-c2ccc3ncnn3c2)cc2c1C(c1cc(F)ccc1Cl)NC2=O (centres unmarked) [Compound I-1841]	10 to 100 µM
CC(C)(O)c1cc(NC(=O)c2cc(Cl)n3ccccc23)c2c(c1)C(=O)NC2c1cc(F)ccc1C(F)F (centres unmarked) [Compound I-267]	≤ 0.1 µM
O=C1NC(c2cc(F)ccc2Cl)c2c(CO)cc(-c3ccc4ncnn4c3)cc21 (centres unmarked) [Compound I-1851]	10 to 100 µM
O=C1Cc2cccc(C3NC(=O)c4cccc(NC(=O)c5cc(F)cc(C(F)(F)F)c5)c43)c2N1 (centres unmarked) [Compound I-810]	10 to 100 µM
Cc1ccc(F)cc1C1NC(=O)c2cc(Br)cc(NC(=O)c3cc(F)cc(C(F)(F)F)c3)c21 (centres unmarked) [Compound I-759]	≤ 0.1 µM
O=C1NC[C@@H](c2cc(NC(=O)c3cc(F)cc(C(F)(F)F)c3)c3c(c2)C(=O)N[C@H]3c2cc(F)ccc2Cl)O1 (single isomer, unassigned) [Compound I-1562]	≤ 0.1 µM
CN1C[C@H](COc2cc(NC(=O)c3cc(F)cc(C(F)(F)F)c3)c3c(c2)C(=O)N[C@H]3c2cc(F)ccc2Cl)CC1=O (single isomer, unassigned) [Compound I-1522]	≤ 0.1 µM
O=C(Nc1cc(-c2ccc3ncnn3c2)cc2c1C(c1cc(F)ccc1Cl)NC2=O)c1nc2ccccc2s1 (centres unmarked) [Compound I-1631]	1 to 10 µM
O=C(Nc1cc(Br)cc2c1C(c1cc(F)ccc1Cl)NC2=O)c1cncc(C(F)(F)F)c1 (centres unmarked) [Compound I-957]	1 to 10 µM

Compound	IC50
Cc1cccc2c1CCN2C(=O)Nc1cccc2c1C(c1cc(F)ccc1Cl)NC2=O (centres unmarked) [Compound I-2438]	1 to 10 µM
CC(C#N)n1cc(-c2cc(NC(=O)c3cc(F)cc(C(F)(F)F)c3)c3c(c2)C(=O)NC3c2cc(F)ccc2Cl)cn1 (centres unmarked) [Compound I-1837]	≤ 0.1 µM
O=C1NC(c2cc(F)ccc2Cl)c2c(NC(=O)N3CCC4C3[C@H]4C(F)(F)F)cccc21 (single isomer, unassigned) [Compound I-2328]	10 to 100 µM
O=C(Nc1cc(N2CCOc3ccccc32)cc2c1C(c1cc(F)ccc1Cl)NC2=O)c1cc(F)cc(C(F)(F)F)c1 (centres unmarked) [Compound I-1189]	≤ 0.1 µM
O=C1NC(c2cc(F)ccc2Cl)c2c(NC(=O)C3(c4cccc(F)c4)CC3)cc(Br)cc21 (centres unmarked) [Compound I-557]	1 to 10 µM
O=C1N[C@@H](c2cc(F)ccc2Cl)c2c(NC(=O)N3C[C@H](O)c4cc(F)ccc43)cc(-c3cnn(C(F)F)c3)cc21 (single isomer, unassigned) [Compound I-2478]	0.1 to 0.5 µM
CC(=O)Nc1cc(NC(=O)c2cc(F)cc(C(F)(F)F)c2)c2c(c1)C(=O)NC2c1cc(F)ccc1Cl (centres unmarked) [Compound I-423]	≤ 0.1 µM
COc1cccc(C(=O)Nc2cc(Br)cc3c2C(c2cc(F)ccc2Cl)NC3=O)c1 (centres unmarked) [Compound I-469]	10 to 100 µM
Cc1ccccc1C1NC(=O)Nc2cccc(OC(=O)c3csc4ccccc34)c21 (centres unmarked) [Compound I-295]	1 to 10 µM
O=C(Nc1cc(-c2cn3ncnc3cn2)cc2c1[C@@H](c1cc(F)ccc1C(F)F)NC2=O)c1cc(F)cc(C(F)(F)F)c1 (single isomer, unassigned) [Compound I-2233]	1 to 10 µM
Cc1ccccc1[C@H]1NC(=O)c2cccc(NC(=O)c3csc4ccccc34)c21 [Compound I-4]	0.5 to 1 µM
O=C1NC(c2cc(F)ccc2Cl)c2c1cccc2-n1cc2ccccc2cc1=O (centres unmarked) [Compound I-1580]	10 to 100 µM
Cc1ncc(-c2cc(NC(=O)c3cc(F)cc(C(F)(F)F)c3)c3c(n2)C(=O)N[C@@H]3c2cc(F)ccc2Cl)cn1 [Compound I-652]	0.5 to 1 µM
O=C1N[C@H](c2cc(F)ccc2Cl)c2c(NC(=O)N3C[C@](O)(C(F)(F)F)c4cc(F)ccc43)cc(F)cc21 (single isomer, unassigned) [Compound I-2631]	≤ 0.1 µM
CCC[C@@]1(O)CN(C(=O)Nc2cccc3c2[C@@H](c2cc(F)ccc2Cl)NC3=O)c2ccc(F)cc21 (single isomer, unassigned) [Compound I-2457]	0.5 to 1 µM
Cc1nc2ccccn2c1CC(=O)Nc1cc(Br)cc2c1C(c1cc(F)ccc1Cl)NC2=O (centres unmarked) [Compound I-603]	10 to 100 µM
O=C(Nc1cc(OC2CCOCC2)cc2c1C(c1cc(F)ccc1Cl)NC2=O)c1cc(F)cc(C(F)(F)F)c1 (centres unmarked) [Compound I-1135]	≤ 0.1 µM
CC1(c2ccccc2)NC(=O)c2cccc(NC(=O)c3csc4ccccc34)c21 (centres unmarked) [Compound I-130]	10 to 100 µM
O=C1NC(c2cc(F)ccc2Cl)c2c1cc(-c1ccc3ncnn3c1)cc2N(CC(=O)N1CCCCC1)C(=O)C(F)(F)F (centres unmarked) [Compound I-2001]	10 to 100 µM
O=C(CN1CCCC1)Nc1cc(-c2ccc3ncnn3c2)cc2c1C(c1cc(F)ccc1Cl)NC2=O (centres unmarked) [Compound I-1783]	10 to 100 µM

Compound	IC50
O=C1NC(c2cc(F)ccc2Cl)c2c(NC(=O)C3CNCC(C(F)(F)F)C3)cc(-c3ccc4ncnn4c3)cc21 (mixture of isomers) [Compound I-2051]	10 to 100 µM
O=C(Nc1cc(N2CCCC2=O)cc2c1C(c1cc(F)ccc1Cl)NC2=O)c1cc(F)cc(C(F)(F)F)c1 (centres unmarked) [Compound I-1273]	≤ 0.1 µM
O=C(Nc1cc(-c2ccn3cnnc3c2)cc2c1C(c1cc(F)ccc1Cl)NC2=O)c1cc(F)cc(C(F)(F)F)c1 (centres unmarked) [Compound I-1501]	≤ 0.1 µM
CNc1cc(NC(=O)N2C[C@](O)(C(F)(F)F)c3cc(F)ccc32)c2c(n1)C(=O)N[C@H]2c1cc(F)ccc1Cl (single isomer, unassigned) [Compound I-2647]	0.1 to 0.5 µM
N#Cc1cnc2ccc(-c3cc(NC(=O)c4cc(F)cc(C(F)(F)F)c4)c4c(c3)C(=O)N[C@@H]4c3cc(F)ccc3Cl)cn12 [Compound I-1442]	0.1 to 0.5 µM
O=C1NC(c2cc(F)ccc2Cl)c2c(NC(=O)c3cc(F)cc4c(Cl)n[nH]c34)cc(Br)cc21 (centres unmarked) [Compound I-1686]	1 to 10 µM
O=C1NC(c2ccccc2Cl)c2c(NC(=O)c3nsc4ccccc34)cc(-c3cn[nH]c3)nc21 (centres unmarked) [Compound I-94, N-(5-(2-Chlorophenyl)-7-oxo-2-(1H-pyrazol-4-yl)-6,7-dihydro-5H-pyrrolo[3,4-b]pyridin-4-yl)benzo[d]isothiazole-3-carboxamide]	0.1 to 0.5 µM
O=C(Nc1cc(-c2ccn3ncnc3c2)cc2c1C(c1cc(F)ccc1O)NC2=O)c1cc(F)cc(C(F)(F)F)c1 (centres unmarked) [Compound I-1655]	1 to 10 µM
CC(C)(C#N)n1cc(-c2cc(NC(=O)N3C[C@](O)(C(F)(F)F)c4cc(F)ccc43)c3c(c2)C(=O)N[C@@H]3c2cc(F)ccc2Cl)cn1 (single isomer, unassigned) [Compound I-2610]	1 to 10 µM
O=C(Nc1cc(Br)cc2c1[C@H](c1ccc(F)cc1Cl)NC2=O)c1cc(F)cc(C(F)(F)F)c1 [Compound I-755]	0.1 to 0.5 µM
Nc1cc(NC(=O)c2cc(F)cc(C(F)(F)F)c2)c2c(c1)C(=O)NC2c1ccccc1Cl (centres unmarked) [Compound I-393]	≤ 0.1 µM
O=C(Nc1cc(Br)cc2c1C(c1cc(F)ccc1Cl)NC2=O)c1cc(Cl)cc(Cl)c1 (centres unmarked) [Compound I-521]	≤ 0.1 µM
O=C(Nc1cc(C2CC(F)(F)C2)cc2c1C(c1cc(F)ccc1Cl)NC2=O)c1cc(F)cc(C(F)(F)F)c1 (centres unmarked) [Compound I-779]	≤ 0.1 µM
Cc1ccccc1C1NC(=O)c2cccc(NC(=O)c3noc4ccc(Cl)cc34)c21 (centres unmarked) [Compound I-200]	1 to 10 µM
O=C(Nc1cc(C(O)C2(O)COC2)cc2c1C(c1cc(F)ccc1Cl)NC2=O)c1cc(F)cc(C(F)(F)F)c1 (centres unmarked) [Compound I-1337]	0.1 to 0.5 µM
NS(=O)(=O)Cc1cc(NC(=O)c2cc(F)cc(C(F)(F)F)c2)c2c(c1)C(=O)N[C@H]2c1cc(F)ccc1Cl [Compound I-1480]	≤ 0.1 µM
COc1cc(C(=O)Nc2cc(Br)cc3c2C(c2cc(F)ccc2C(F)F)NC3=O)cc(F)c1F (centres unmarked) [Compound I-436]	0.1 to 0.5 µM
O=C(Nc1cc(Br)cc2c1C(c1cc(F)ccc1Cl)NC2=O)c1cccc(C(F)(F)F)n1 (centres unmarked) [Compound I-567]	1 to 10 µM
O=C1NC(c2cc(F)ccc2Cl)c2c(NC(=O)N3CCCc4ccc(Cl)cc43)cc(Br)cc21 (centres unmarked) [Compound I-992]	1 to 10 µM

— patent US12581252B2, “Substituted pyrrolo[3,4-b]pyridines as PI3K-α inhibitors” (Relay Therapeutics, Inc., priority 2020, dated 2026)
